Data as given in patent US20160361314A1, “COMBINATION OF AN ALK INHIBITOR AND A CDK INHIBITOR FOR THE TREATMENT OF CELL PROLIFERATIVE DISEASES” (NOVARTIS AG, priority 2013, published 2016).
Entries after “also recorded” stand apart in the source; their conditions may differ.

How the values were obtained:
Format in all cases: cell-based
[1] = tested on: CHP-134 human neuroblastoma cells; assay: Loewe additivity (CHALICE) synergy screen, CellTiter-Glo viability, 7x7 dose matrix; design: key to Max Combo Effect: growth inhibition scale; 100 = stasis; conditions: for Max Combo Effect: in % (unit assumed)
Description: (§1) The synergistic interaction of drug combinations were assessed based on the Loewe Additivity Model using Chalice software [CombinatoRx, Cambridge Mass.]). […] 27:659-66. The software compares the response (% inhibition or % reduction of cell viability) of drug treatment from a combination of two agents to the response of the agents acting alone, against the drug-with-itself dose-additive reference model (the Loewe Additivity Model). Deviations from dose additives can be assessed numerically with a “synergy score” which quantifies the overall strength of combination effect. A synergy score >0 indicates a synergistic combination. In order to ensure only strongly synergistic combinations were selected, the acceptance criteria were set at a higher level. Strongly synergistic combinations were defined as having both a synergy score >2, a synergy score that is twice as large as the background (non-synergy) model would predict, and a maximum efficacy of >100, a value equivalent to stasis, as determined from the growth inhibition calculation.
(§2) After treatment, cell viabilty (quantity of viable cells) for each test mixtures were determined by the CellTiter-Glo® (CTG) luminescent cell viability assay (Promega) described in the Assay section, infra. […] The response to treatment (% reduction of cell viability) was analyzed using Chalice software [CombinatoRx, Cambridge Mass.]). Data evaluation and graph generation were performed using Microsoft Excel software and Chalice software.
(§3) The combinations were tested in duplicate using a 7×7 dose matrix block in 1536 well format with a cell proliferation readout as described in the Assay section infra.
(§4) All synergy calculations were performed using CHALICE software package from Zalicus and potential synergistic interactions between compound combinations were assessed using the Excess Inhibition 2D matrix according to the Loewe additivity model and were reported as synergy score (Table 10) (Lehar et al). Strongly synergistic combination were identified as having both (1) a synergy score greater than 2, a synergy score that is twice as large as the background (non-synergy) model would predict, and (2) a maximum efficacy of >100, a value roughly equivalent to stasis, as determined from the growth inhibition calculation.
(§5) Cell viability were determined by measuring cellular ATP content using the CellTiter-Glo® (CTG) luminescent cell viability assay (Promega). […] Reduced and enhanced luminescent signal values (responses) were calculated relative to untreated (control) cells, and the calculated signal value proportional to the cell viability.
(§6) Synergistic combinations were identified based on the Loewe Addivity Model. To measure the effects of drug combinations on the cell viability, cells from the 20 cell lines listed in Table 1 above were seeded into 1536-well assay plates at a density 300 cells per well in a 7 μL final volume and incubated at 37° C. overnight in a GNF Systems incubator with 95% RH and 5% CO2.
(§7) A six-point dose response curve for the test compounds were prepared in a 384 well ECHO compatible source plate (Labcyte P-05525) with 3-fold serial dilution series. For example, for a six-point dose response curve and a top compound concentration of 5 mM, the concentration of the compounds in the source well were 5 mM, 1.67 mM, 0.56 mM, 0.19 mM, 0.06 mM and 0.02 mM.
(§8) Approximately 18 hours after plating, compound combinations were generated on the fly by transferring 7.5 nL of compound from the pre-diluted source plates using the Labcyte ECHO555 integrated onto the ACP-1 system with replicate plates per cell line; the final DMSO concentration per well was 0.2%. It is noted that the total volume in the wells was 7 μL.
(§9) The well at the intersection of the first column and first row which received no compound was dosed with 2×7.5 nL of DMSO and served as control.

[2] = tested on: IMR-5 human neuroblastoma cells; assay: as above; design: key to Max Combo Effect: growth inhibition scale; 100 = stasis
Description: as §1, §2, §3, §4, §5, §6, §7, §8, §9

[3] = tested on: KELLY human neuroblastoma cells; assay: as above; design: key to Max Combo Effect: growth inhibition scale; 100 = stasis; conditions: KELLY (F1174L)
Description: as §1, §2, §3, §4, §5, §6, §7, §8, §9

[4] = tested on: LAN-5 human neuroblastoma cells; assay: as above; design: key to Max Combo Effect: growth inhibition scale; 100 = stasis; conditions: LAN-5 (R1275Q)
Description: as §1, §2, §3, §4, §5, §6, §7, §8, §9

[5] = tested on: NB-1691 human neuroblastoma cells; assay: as above; design: key to Max Combo Effect: growth inhibition scale; 100 = stasis; conditions: NB-1691 (WT); for Max Combo Effect: in % (unit assumed)
Description: as §1, §2, §3, §4, §5, §6, §7, §8, §9

[6] = tested on: NLF human neuroblastoma cells; assay: as above; design: key to Max Combo Effect: growth inhibition scale; 100 = stasis; conditions: NLF (WT)
Description: as §1, §2, §3, §4, §5, §6, §7, §8, §9

[7] = tested on: SK-N-AS human neuroblastoma cells; assay: as above; design: key to Max Combo Effect: growth inhibition scale; 100 = stasis; conditions: SK-N-AS (WT); for Max Combo Effect: in % (unit assumed)
Description: as §1, §2, §3, §4, §5, §6, §7, §8, §9

[8] = tested on: SK-N-BE(2) human neuroblastoma cells; assay: as above; design: key to Max Combo Effect: growth inhibition scale; 100 = stasis; conditions: SK-N-BE(2) (WT)
Description: as §1, §2, §3, §4, §5, §6, §7, §8, §9

[9] = tested on: panel of human neuroblastoma cell lines (ALK mutant and wild type); assay: Loewe additivity (CHALICE) synergy screen, results over the whole panel; conditions: for Single-agent efficacy over the panel (self-cross scatter plots): Example A, FIGS. 4A, 4B, 15 cell lines; for Mean of synergy scores over the cell lines / Median of synergy scores over the cell lines: 15 cell lines of Table 2; for Efficacy and synergy over the panel (scatter plots): Example G, FIG. 21, 16 cell lines
Description: as §1, §2
The statistical variation of the synergy scores tabulated in Tables 2 and 3 were graphically illustrated by a Box Plot (FIG. 3). […] The ALK×ALK and CDK4/6×CDK4/6 combination is moderately sygergistic with synergy score at 1.011 (sd=0.4) and 1.16 (sd=0.43), respectively. In ALK normal cells, the combinations and the self-cross treatments were not sygeristic with synergistic score of about 0.5, but similarly large standard deviations.
For visual identification for strongly synergistic compositions, the data in Tables 2 and 3 were presented in scatter plots (FIGS. 4 A-C) where maximum combination efficacy were plotted against the synergy scores. Only data from two of the three ALK inhibitors, compounds A1 and A2 were included. In a scatter plot, a vertical shift implies additive effect; a right shift implies synergistic interactions and a diagonal shift implies synergy with a boost in efficacy. Synergistic combination hits are those in the upper right quadrant where the synergy score is >2 and the maximum efficacy is >100.
as §3, §4, §5
Synergistic combinations were identified based on the Loewe Addivity Model.

[10] = tested on: SH-SY5Y human neuroblastoma cells; assay: Loewe additivity (CHALICE) synergy screen, CellTiter-Glo viability, 7x7 dose matrix; design: key to Max Combo Effect: growth inhibition scale; 100 = stasis; conditions: SH-SY5Y (F1174L)
Description: as §1, §2, §3, §4, §5, §6, §7, §8, §9

Row | SMILES | Synergy score (Mean) ([1]; CHP-134 (WT), Table 3) | Max Combo Effect ([1]; CHP-134 (WT), Table 3) | Max Combo Effect ([2]; IMR-5 (WT), Table 3) | Synergy score (Mean) ([2]; IMR-5 (WT), Table 3) | Max Combo Effect ([3]; Table 3) | Synergy score (Mean) ([3]; Table 3) | Max Combo Effect ([4]; Table 3) | Synergy score (Mean) ([4]; Table 3) | Synergy score (Mean) ([5]; Table 3) | Max Combo Effect ([5]; Table 3) | Max Combo Effect ([6]; Table 3) | Synergy score (Mean) ([6]; Table 3) | Synergy score (Mean) ([7]; Table 3) | Max Combo Effect ([7]; Table 3) | Max Combo Effect ([8]; Table 3) | Synergy score (Mean) ([8]; Table 3) | Single-agent efficacy over the panel (self-cross scatter plots) [9] | Synergy score (Mean) ([1]; CHP-134 (ALK WT), Table 2) | Max Combo Effect ([1]; CHP-134 (ALK WT), Table 2) | Max Combo Effect ([2]; IMR-5 (ALK WT), Table 2) | further results
1 | Cc1cc(Nc2nc(Nc3ccccc3S(=O)(=O)C(C)C)c3cn[nH]c3n2)c(OC(C)C)cc1C1CCN(C)CC1 [Compound A2, N6-(2-isopropoxy-5-methyl-4-(1-methylpiperidin-4-yl)phenyl)-N4-(2-(isopropylsulfonyl)phenyl)-1H-pyrazolo[3,4-d]pyrimidine-4,6-diamine] | 0.10 | 180.10 | 179.71 | 0.23 | 191.61 | 0.64 | 196.81 | 0.87 | 0.97 | 196.56 | 183.68 | 0.63 | 0.20 | 61.99 | 177.26 | 0.47 | preferential single-agent efficacy for the ALK disease cell lines over the ALK normal cell lines |  |  |  | 
2 | Cc1cc(Nc2ncc(Cl)c(Nc3ccccc3S(=O)(=O)C(C)C)n2)c(OC(C)C)cc1C1CCNCC1 [Compound A1, 5-chloro-N2-(2-isopropoxy-5-methyl-4-(piperidin-4-yl)phenyl)-N4-[2-(propane-2-sulfonyl)-phenyl]-pyrimidine-2,4-diamine] |  |  |  |  |  |  |  |  |  |  |  |  |  |  |  |  | preferential single-agent efficacy for the ALK disease cell lines over the ALK normal cell lines | 0.223 | 26.1 | 80.4 | Synergy score (Mean) ([2]; IMR-5 (ALK WT), Table 2): 0.884; Max Combo Effect ([3]; Table 2): 97.7; Synergy score (Mean) ([3]; Table 2): 0.900; Max Combo Effect ([4]; Table 2): 166.1; Synergy score (Mean) ([4]; Table 2): 1.731; Synergy score (Mean) ([5]; Table 2): 0.760; Max Combo Effect ([5]; Table 2): 111.9; Max Combo Effect ([6]; Table 2): 27.1; Synergy score (Mean) ([6]; Table 2): 0.152; Max Combo Effect ([10]; Table 2): 91.5; Synergy score (Mean) ([10]; Table 2): 0.638; Synergy score (Mean) ([7]; Table 2): 0.374; Max Combo Effect ([7]; Table 2): 42.4; Max Combo Effect ([8]; Table 2): 25.2; Synergy score (Mean) ([8]; Table 2): 0.246; Mean of synergy scores over the cell lines [9]: 0.841; Median of synergy scores over the cell lines [9]: 0.884; Efficacy and synergy over the panel (scatter plots) [9]: preferential single agent efficacy for the ALK Disease subset of cell lines over the ALK WT cell lines
3 | C[C@@H](Oc1cc(-c2cnn(C3CCNCC3)c2)cnc1N)c1c(Cl)ccc(F)c1Cl [Compound A3, (R)-3-(1-(2,6-dichloro-3-fluorophenyl)ethoxy)-5-(1-(piperidin-4-yl)-1H-pyrazol-4-yl)pyridin-2-amine, reference compound] | 0.02 | 10.05 | 99.95 | 0.73 | 134.74 | 0.47 |  |  | 0.21 | 36.53 | 29.10 | 0.08 | 0.19 | 55.78 | 10.76 | 0.02 |  |  |  |  | Max Combo Effect ([10]; Table 3): 141.61; Synergy score (Mean) ([10]; Table 3): 0.98
4 | CN(C)C(=O)c1cc2cnc(Nc3ccc(N4CCNCC4)cn3)nc2n1C1CCCC1 [Compound B, 7-cyclopentyl-N,N-dimethyl-2-((5-(piperazin-1-yl)pyridin-2-yl)amino)-7H-pyrrolo[2,3-d]pyrimidine-6-carboxamide] | 0.35 | 48.76 | 89.02 | 1.04 | 27.66 | 0.19 | 73.59 | 0.57 | 0.38 | 91.57 | 45.7 | 0.54 | 0.48 |  | 93.3 | 1.41 | single-agent efficacy (>100) in two disease cell lines and one normal cell line; also recorded: minimal single agent efficacy or synergy | 0.388 | 52.3 | 82.0 | Synergy score (Mean) ([2]; IMR-5 (ALK WT), Table 2): 0.788; Max Combo Effect ([3]; Table 2): 60.5; Synergy score (Mean) ([3]; Table 2): 0.255; Max Combo Effect ([4]; Table 2): 99.2; Synergy score (Mean) ([4]; Table 2): 1.161; Synergy score (Mean) ([5]; Table 2): 1.032; Max Combo Effect ([5]; Table 2): 121.1; Max Combo Effect ([6]; Table 2): 43.9; Synergy score (Mean) ([6]; Table 2): 0.122; Max Combo Effect ([10]; Table 2): 86.8; Synergy score (Mean) ([10]; Table 2): 0.811; Max Combo Effect ([10]; Table 3): 35.3; Synergy score (Mean) ([10]; Table 3): 0.09; Synergy score (Mean) ([7]; Table 2): 0.503; Max Combo Effect ([7]; Table 2): 64.7; Max Combo Effect ([8]; Table 2): 75.2; Synergy score (Mean) ([8]; Table 2): 0.628; Mean of synergy scores over the cell lines [9]: 0.757; Median of synergy scores over the cell lines [9]: 0.788; Efficacy and synergy over the panel (scatter plots) [9]: no single agent efficacy in any of the cell lines tested
